The assay deals with acid secretion. The experiment in a line: Animal study, PPI + cholinergic stimulation: gastric acid output by titration of 30-min gastric collections in fasted, anesthetized, pylorus-ligated rats. It counts as in vivo. Here is the method:
Rats are fasted overnight.
Rats are anesthetized and small laparotomy and gastrotomy are performed.
Tygon tubing placed through gastrotomy and into proximal duodenum; pylorus ligated
Tubing is placed through a small gastrotomy into the most dependent portion of the stomach; esophagogastric junction is ligated carefully to avoid vagal damage and to prevent aspiration
Gastrotomy and abdomen is closed around tubing
Stomach is gently rinsed with about 0.9% NaCl at about pH 7.
Gastric contents are collected by gravity for about 30 min, at which time is rinsed with about 5 ml of NaCl and collected; 30-min contents is titrated with about […] using radiometer automatic titrator to determine basal acid output (“BAO”)
Rats (3 per group) are randomized to 1 of 3 treatments: • A. Control—intraduodenal (ID) HCO3; • B. Carbachol about 15 μg/kg IP+ID HCO3; and • C. ID omeprazole (about 20 mg/kg) is dissolved in HCO3+carbachol about 15 μg/kg IP
Gastric contents are collected by gravity for about 30 min, at which time stomachs are rinsed with about 5 ml of NaCl and collected; contents are titrated with 0.01 M NaOH using a Radiometer pH meter; about 30-min collection is repeated ×6.

On to `C[N+](C)(C)CCOC(N)=O` [carbachol], for which the “effect on acid secretion” value (carbachol about 15 μg/kg IP + ID HCO3, 3 per group) is given as “rapidly stimulates acid secretion”. Also, the “time at which acid secretion reaches a maximum level following administration” value (carbachol about 15 μg/kg IP + ID HCO3, gradually diminishes thereafter) is listed as “about 90 min”.

The values above are taken from US20080214619A1, “Business method to treat and/or prevent a gastric acid disorder with a proton pump inhibitor (PPI) and a cholinergic agonist to induce rapid onset of PPI action with or without food” (priority 2006, published 2008).
